Measured values published in PubChem BioAssay (NCI).
Values joined by “and” are separate entries in the source; they are usually repeats but may differ in a detail not shown here. Equal values may be shown once.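 A five-concentration, 48-hour dose response in 96-well plates underlies each endpoint, interpolated linearly between surrounding concentrations. Here, GI50 denotes the concentration required for 50% inhibition of growth. TGI: concentration producing complete growth inhibition.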

Columns and labels:
Experiment in all cases: DTP human tumour cell line panel, 48 h
MDA-N = system: MDA-N
NCI-H23 lung = system: NCI-H23 lung
IGROV1 ovarian = system: IGROV1 ovarian
U251 CNS = system: U251 CNS
NCI-H460 lung = system: NCI-H460 lung
A498 renal = system: A498 renal
HCT-116 colon = system: HCT-116 colon
NCI-H522 lung = system: NCI-H522 lung
RPMI-8226 leukemia = system: RPMI-8226 leukemia
UO-31 renal = system: UO-31 renal
UACC-62 melanoma = system: UACC-62 melanoma
SN12C renal = system: SN12C renal
DU-145 prostate = system: DU-145 prostate
LOX IMVI melanoma = system: LOX IMVI melanoma

Structure (SMILES)	TGI (MDA-N) [µM]	TGI (NCI-H23 lung) [µM]	TGI (IGROV1 ovarian) [µM]	TGI (U251 CNS) [µM]	TGI (NCI-H460 lung) [µM]	TGI (A498 renal) [µM]	TGI (HCT-116 colon) [µM]	TGI (NCI-H522 lung)	TGI (RPMI-8226 leukemia) [µM]	TGI (UO-31 renal) [µM]	TGI (UACC-62 melanoma) [µM]	TGI (SN12C renal) [µM]	TGI (DU-145 prostate) [µM]	TGI (LOX IMVI melanoma) [µM]	GI50 (IGROV1 ovarian)	GI50 (NCI-H522 lung)	GI50 (RPMI-8226 leukemia) [µM]
CCOC(=O)c1c(C)n(-c2ccc(C)cc2)c2c1cc(O)c1[nH]c3c(c12)CCCC3	46.6	67	33.9	34.8	84.5	56.2	92.6	27.4 µM	24.8	27.9	46.7	> 100	42.5	30.2	–	–	–
C=C1C(=O)OC2C3C(=C)[C@@H](OC(C)=O)CC3C(C)=CC(OC(=O)C(C)(O)C(C)OC(C)=O)[C@@H]12 (some centres not stated)	18.5	27.3	21.3	30.5	44	32.3	17.9	3.21 µM	65.7	24.9	25.8	27.8	30.3	19.4	–	–	–
Brc1ccc(C2(N3CCCCC3)CCCCC2)s1	> 100	> 100	> 100	> 100	84.8	> 100	> 100	> 100 µM	39.5	> 100	> 100	> 100	> 100	29	–	–	–
COc1ccc(N=C/C=C/C(=C/COC(C)=O)OC(C)=O)cc1	43.8	91.7	45.1	72.3	98.6	62.9	28.7	30.4 µM	> 100	–	> 100	74.9	> 100	> 100	–	–	–
COC(=O)[C@H]1[C@H](OC(=O)[C@@H](OC)c2ccccc2)ON2CC[C@@H](OC(=O)c3ccccc3)[C@H]12	> 100	> 100	> 100	> 100	> 100	23.1	> 100	7.59 µM	> 100	> 100	28	> 100	> 100	> 100	–	–	–
Nc1nc(Cl)c(N)c(NCC2(CO)CC(O)C2)n1 (configuration not stated)	> 100	> 100	> 100	> 100	> 100	> 100	> 100	> 100 µM	> 100	> 100	> 100	> 100	> 100	> 100	–	–	–
COc1ccc2c(c1)CC[C@@H]1C2CC[C@]2(C)C(=O)N(C)C(=O)CC12 (some centres not stated)	> 100	> 100	> 100	> 100	> 100	> 100	> 100	> 100 µM	–	> 100	> 100	> 100	> 100	–	–	–	–
CC(C)=CCc1c(O)c(CC=C(C)C)c2oc3c(c(=O)c2c1O)C(C=C(C)C)Oc1cc(O)ccc1-3 (configuration not stated)	12.1	16.2	20.2	16.7	17	29.8	13.2	15.2 µM	20.6	15.7	18	18.2	24.3	16	–	–	–
COc1cc(O)c2c(=O)cc(C3(OC(C)=O)C=CC(OC4OC(CO)C(O)C(O)C4O)C=C3)oc2c1 (configuration not stated)	> 100	> 100	> 100	> 100	> 100	> 100	> 100	> 100 µM	> 100	> 100	> 100	> 100	> 100	> 100	–	–	–
COc1cc(-c2c(C(C)=O)c(-c3ccccc3)n(C3OC(COC(C)=O)C(OC(C)=O)C(OC(C)=O)C3OC(C)=O)c(=S)c2C#N)ccc1O (configuration not stated)	> 100	> 100	> 100	> 100	> 100	> 100	> 100	90.4 µM and > 100 µM	> 100	> 100	> 100	> 100	> 100	> 100	31.8 µM and > 100 µM	18.6 µM and 40.2 µM	34.5
O=C(N/N=C1\CCc2ccccc21)N/N=C1\CCc2ccccc21	30	> 100	> 100	> 100	> 100	> 100	> 100	> 100 µM	> 100	> 100	> 100	> 100	> 100	> 100	–	–	–
CCC1c2[nH]c3ccccc3c2C[C@H]2C(=O)NC(Cc3ccccc3)C(=O)N12 (some centres not stated)	67.5	> 100	74.7	56.3	–	> 100	57.1	46.6 µM	51.3	> 100	38.8	79.9	> 100	45.8	–	–	–
COC(=O)c1c(OC(C)=O)ccc2c1c1c(n2Cc2ccccc2)C(=O)c2ccccc2C1=O	38.3	42.1	50.4	42.4	> 100	43.6	34.2	46.6 µM	36.4	> 100	48.8	37.5	36.5	–	–	–	–
Cc1ccc2c(c1)C(=O)c1ccc(C)nc1C2=O	31.4	58.9	83.2	> 100	–	> 100	42.1	82.1 µM	> 100	> 100	48.9	59.2	> 100	75.6	–	–	–
CCCCC[C@H]1CC=CC(=O)O1	23	> 100	27.3	20.8	21.2	9.03	12.9	11.8 µM	19.3	24	23	23.8	36.1	18.1	–	–	–
